Results from the NIST ThermoML archive (doi:10.1016/j.jct.2007.04.005).
Numbers after ± are expanded uncertainties.

Experiment: xn = mol fraction of the nth substance listed
Details: 328.15 K, Liquid

CCCCCCCCC [nonane] + C1CCCCC1
mass density (8210 kPa, x2 = 0.5996): 722.4 ± 1 kg/m3 | mass density (8210 kPa, x2 = 0.7052): 728.8 ± 0.9 kg/m3 | mass density (8210 kPa, x2 = 0.7993): 735.5 ± 0.9 kg/m3 | mass density (8210 kPa, x2 = 0.9039): 743.9 ± 0.9 kg/m3 | mass density (10230 kPa, x2 = 0): 699.9 ± 1.2 kg/m3 | mass density (10230 kPa, x2 = 0.09303): 702.8 ± 1.2 kg/m3 | mass density (10230 kPa, x2 = 0.2009): 706.5 ± 1.1 kg/m3 | mass density (10230 kPa, x2 = 0.3051): 710.4 ± 1.1 kg/m3 | mass density (10230 kPa, x2 = 0.417): 714.9 ± 1.1 kg/m3 | mass density (10230 kPa, x2 = 0.512): 719.3 ± 1.1 kg/m3 | mass density (10230 kPa, x2 = 0.5996): 724.3 ± 1 kg/m3 | mass density (10230 kPa, x2 = 0.7052): 730.7 ± 1 kg/m3 | mass density (10230 kPa, x2 = 0.7993): 737.3 ± 1 kg/m3 | mass density (10230 kPa, x2 = 0.9039): 745.8 ± 1 kg/m3 | mass density (11250 kPa, x2 = 0): 700.8 ± 1.2 kg/m3 | mass density (11250 kPa, x2 = 0.09303): 703.7 ± 1.2 kg/m3 | mass density (11250 kPa, x2 = 0.2009): 707.4 ± 1.2 kg/m3 | mass density (11250 kPa, x2 = 0.3051): 711.3 ± 1.2 kg/m3 | mass density (11250 kPa, x2 = 0.417): 715.8 ± 1.1 kg/m3 | mass density (11250 kPa, x2 = 0.512): 720.2 ± 1.1 kg/m3 | mass density (11250 kPa, x2 = 0.5996): 725.2 ± 1.1 kg/m3 | mass density (11250 kPa, x2 = 0.7052): 731.6 ± 1.1 kg/m3 | mass density (11250 kPa, x2 = 0.7993): 738.3 ± 1 kg/m3 | mass density (11250 kPa, x2 = 0.9039): 746.7 ± 1 kg/m3 | mass density (12260 kPa, x2 = 0): 701.7 ± 1.3 kg/m3 | mass density (12260 kPa, x2 = 0.09303): 704.6 ± 1.2 kg/m3 | mass density (12260 kPa, x2 = 0.2009): 708.3 ± 1.2 kg/m3 | mass density (12260 kPa, x2 = 0.3051): 712.2 ± 1.2 kg/m3 | mass density (12260 kPa, x2 = 0.417): 716.7 ± 1.2 kg/m3 | mass density (12260 kPa, x2 = 0.512): 721.1 ± 1.1 kg/m3 | mass density (12260 kPa, x2 = 0.5996): 726.1 ± 1.1 kg/m3 | mass density (12260 kPa, x2 = 0.7052): 732.5 ± 1.1 kg/m3 | mass density (12260 kPa, x2 = 0.7993): 739.2 ± 1.1 kg/m3 | mass density (12260 kPa, x2 = 0.9039): 747.7 ± 1 kg/m3 | mass density (14290 kPa, x2 = 0): 703.4 ± 1.3 kg/m3 | mass density (14290 kPa, x2 = 0.09303): 706.3 ± 1.3 kg/m3 | mass density (14290 kPa, x2 = 0.2009): 710.1 ± 1.3 kg/m3 | mass density (14290 kPa, x2 = 0.3051): 714 ± 1.3 kg/m3 | mass density (14290 kPa, x2 = 0.417): 718.5 ± 1.2 kg/m3 | mass density (14290 kPa, x2 = 0.512): 722.9 ± 1.2 kg/m3 | mass density (14290 kPa, x2 = 0.5996): 727.9 ± 1.2 kg/m3 | mass density (14290 kPa, x2 = 0.7052): 734.4 ± 1.2 kg/m3 | mass density (14290 kPa, x2 = 0.7993): 741 ± 1.1 kg/m3 | mass density (14290 kPa, x2 = 0.9039): 749.5 ± 1.1 kg/m3 | mass density (16310 kPa, x2 = 0): 705.1 ± 1.4 kg/m3 | mass density (16310 kPa, x2 = 0.09303): 708 ± 1.4 kg/m3 | mass density (16310 kPa, x2 = 0.2009): 711.8 ± 1.4 kg/m3 | mass density (16310 kPa, x2 = 0.3051): 715.7 ± 1.4 kg/m3 | mass density (16310 kPa, x2 = 0.417): 720.2 ± 1.3 kg/m3 | mass density (16310 kPa, x2 = 0.512): 724.6 ± 1.3 kg/m3 | mass density (16310 kPa, x2 = 0.5996): 729.7 ± 1.3 kg/m3 | mass density (16310 kPa, x2 = 0.7052): 736.1 ± 1.2 kg/m3 | mass density (16310 kPa, x2 = 0.7993): 742.8 ± 1.2 kg/m3 | mass density (16310 kPa, x2 = 0.9039): 751.3 ± 1.2 kg/m3 | mass density (18340 kPa, x2 = 0): 706.8 ± 1.5 kg/m3 | mass density (18340 kPa, x2 = 0.09303): 709.6 ± 1.5 kg/m3 | mass density (18340 kPa, x2 = 0.2009): 713.4 ± 1.5 kg/m3 | mass density (18340 kPa, x2 = 0.3051): 717.3 ± 1.4 kg/m3 | mass density (18340 kPa, x2 = 0.417): 721.9 ± 1.4 kg/m3 | mass density (18340 kPa, x2 = 0.512): 726.3 ± 1.4 kg/m3 | mass density (18340 kPa, x2 = 0.5996): 731.4 ± 1.3 kg/m3
